Results taken from patent US9833497B2, “Human originated EGF domain proteins and use of the same” (CHENGDU SOURCEBIO LIMITED-LIABILITY COMPANY, priority 2013, dated 2017).

What was measured:
Format in all cases: cell-based
E. coli BL21 = test: MIC against Gram-negative bacteria: E. coli BL21
Outline: (§1)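 Read-out is absence of bacterial growth, with MIC set at the lowest recombinant protein concentration achieving it. Bacteria, pre-grown in LB to McFarland 0.5 and resuspended, were exposed at 5×10^5 CFU/mL to two-fold diluted human EGF domain proteins in triplicate at 37° C, 175 rpm.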

Pseudomonas aeruginosa = test: MIC against Gram-negative bacteria: Pseudomonas aeruginosa
Outline: as §1

Moraxella catarrhalis = test: MIC against Gram-negative bacteria: Moraxella catarrhalis
Outline: as §1

Serratia marcescens = test: MIC against Gram-negative bacteria: Serratia marcescens
Outline: as §1

Klebsiella pneumonia = test: MIC against Gram-negative bacteria: Klebsiella pneumonia
Outline: as §1

Proteus mirabilis = test: MIC against Gram-negative bacteria: Proteus mirabilis
Outline: as §1

Citrobacter diversus = test: MIC against Gram-negative bacteria: Citrobacter diversus
Outline: as §1

Proteus vulgaris = test: MIC against Gram-negative bacteria: Proteus vulgaris
Outline: as §1

Enterobacter cloacae = test: MIC against Gram-negative bacteria: Enterobacter cloacae
Outline: as §1

E. coli DH5α = test: Antibacterial activity: MIC and growth curve against E. coli DH5α in 96-well plate; settings: minimal inhibitory concentration against E. coli DH5α; 96-well plate, 5×10^5 CFU/mL, 37° C., judged after 8 h
Outline: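 Log-phase DH5α (OD600 about 0.5, 37° C, 185 rpm in LB) was pelleted, resuspended in fresh LB and seeded at 5×10^5 CFU/mL with recombinant protein at 50, 25 and 12.5 μg/mL (two-fold series), in triplicate. Plates were shaken at 175 rpm, 37° C, and OD600 was read every 30 min. MIC was the lowest concentration with no growth.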

Aeromonas hydrophila = test: MIC against Gram-negative bacteria: Aeromonas hydrophila
Outline: as §1

[1] = 96-well plate, 5×10^5 CFU/mL, 37° C., 10 h
[2] = E. coli BL21, 10 h cultivation at 37° C.
[3] = P. aeruginosa, 10 h cultivation at 37° C.
[4] = M. catarrhalis, 10 h cultivation at 37° C.
[5] = S. marcescens, 10 h cultivation at 37° C.
[6] = K. pneumonia, 10 h cultivation at 37° C.
[7] = P. mirabilis, 10 h cultivation at 37° C.
[8] = C. diversus, 10 h cultivation at 37° C.
[9] = P. vulgaris, 10 h cultivation at 37° C.
[10] = E. cloacae, 10 h cultivation at 37° C.
[11] = A. hydrophila, 10 h cultivation at 37° C.
[12] = 10 h cultivation at 37° C., 5×10^5 CFU/mL, two-fold serial dilution

PRT153 (DCLACQGGSQRPCSGNGHCSGDGSRQGDGSCRCHMGYQGPLCT; listed as Homo sapiens)
MIC (μg/mL) E. coli BL21 (E. coli BL21; E. coli BL21, 10 h cultivation at 37° C., 5×10^5 CFU/mL): 100 µg/mL | MIC (μg/mL) P. aeruginosa (Pseudomonas aeruginosa; P. aeruginosa, 10 h cultivation at 37° C., 5×10^5 CFU/mL): 50 µg/mL | MIC (μg/mL) M. catarrhalis (Moraxella catarrhalis; M. catarrhalis, 10 h cultivation at 37° C., 5×10^5 CFU/mL): 12.5 µg/mL | MIC (μg/mL) S. marcescens (Serratia marcescens; S. marcescens, 10 h cultivation at 37° C., 5×10^5 CFU/mL): 50 µg/mL | MIC (μg/mL) K. pneumonia (Klebsiella pneumonia; K. pneumonia, 10 h cultivation at 37° C., 5×10^5 CFU/mL): 12.5 µg/mL | MIC (μg/mL) P. mirabilis (Proteus mirabilis; P. mirabilis, 10 h cultivation at 37° C., 5×10^5 CFU/mL): 50 µg/mL | MIC (μg/mL) C. diversus (Citrobacter diversus; C. diversus, 10 h cultivation at 37° C., 5×10^5 CFU/mL): 25 µg/mL | MIC (μg/mL) P. vulgaris (Proteus vulgaris; P. vulgaris, 10 h cultivation at 37° C., 5×10^5 CFU/mL): 12.5 µg/mL | MIC (μg/mL) E. cloacae (Enterobacter cloacae; E. cloacae, 10 h cultivation at 37° C., 5×10^5 CFU/mL): 25 µg/mL | MIC (E. coli DH5α): 12.5 µg/mL | MIC (μg/mL) A. hydrophila (Aeromonas hydrophila; A. hydrophila, 10 h cultivation at 37° C., 5×10^5 CFU/mL): 50 µg/mL

PRT664 (DINECLTLGLCKDAECVNTRGSYLCTCRPGLMLDPSRSRCV; listed as Homo sapiens)
MIC E. coli BL21 (E. coli BL21; [1]): 50 µg/mL | MIC P. aeruginosa (Pseudomonas aeruginosa; [1]): 25 µg/mL | MIC M. catarrhalis (Moraxella catarrhalis; [1]): 25 µg/mL | MIC S. marcescens (Serratia marcescens; [1]): 25 µg/mL | MIC K. pneumonia (Klebsiella pneumonia; [1]): 12.5 µg/mL | MIC P. mirabilis (Proteus mirabilis; [1]): 50 µg/mL | MIC C. diversus (Citrobacter diversus; [1]): 12.5 µg/mL | MIC P. vulgaris (Proteus vulgaris; [1]): 12.5 µg/mL | MIC E. cloacae (Enterobacter cloacae; [1]): 25 µg/mL | MIC (E. coli DH5α): 25 µg/mL | MIC A. hydrophila (Aeromonas hydrophila; [1]): 50 µg/mL

PRT1003 (STDYCVSAPCFNGGTCVNRPGTFSCLCAMGFQGPRCE; listed as Homo sapiens)
MIC (E. coli BL21; [2]): 12.5 µg/mL | MIC (Pseudomonas aeruginosa; [3]): 25 µg/mL | MIC (Moraxella catarrhalis; [4]): 25 µg/mL | MIC (Serratia marcescens; [5]): 12.5 µg/mL | MIC (Klebsiella pneumonia; [6]): 50 µg/mL | MIC (Proteus mirabilis; [7]): 50 µg/mL | MIC (Citrobacter diversus; [8]): 12.5 µg/mL | MIC (Proteus vulgaris; [9]): 25 µg/mL | MIC (Enterobacter cloacae; [10]): 25 µg/mL | MIC (E. coli DH5α): 50 µg/mL | MIC (Aeromonas hydrophila; [11]): 25 µg/mL

PRT954 (NIDDCPNHRCQNGGVCVDGVNTYNCRCPPQWTGQFCT; listed as Homo sapiens)
MIC (E. coli BL21; [2]): 25 µg/mL | MIC (Pseudomonas aeruginosa; [3]): 12.5 µg/mL | MIC (Moraxella catarrhalis; [4]): 50 µg/mL | MIC (Serratia marcescens; [5]): 25 µg/mL | MIC (Klebsiella pneumonia; [6]): 25 µg/mL | MIC (Proteus mirabilis; [7]): 25 µg/mL | MIC (Citrobacter diversus; [8]): 25 µg/mL | MIC (Proteus vulgaris; [9]): 12.5 µg/mL | MIC (Enterobacter cloacae; [10]): 50 µg/mL | MIC (E. coli DH5α): 50 µg/mL | MIC (Aeromonas hydrophila; [11]): 12.5 µg/mL

PRT1072 (TQQVCAGYCANNSTCTVNQGNQPQCRCLPGFLGDRCQ; listed as Homo sapiens)
MIC E. coli BL21 (E. coli BL21; [12]): 12.5 µg/mL | MIC P. aeruginosa (Pseudomonas aeruginosa; [12]): 12.5 µg/mL | MIC M. catarrhalis (Moraxella catarrhalis; [12]): 12.5 µg/mL | MIC S. marcescens (Serratia marcescens; [12]): 12.5 µg/mL | MIC K. pneumonia (Klebsiella pneumonia; [12]): 25 µg/mL | MIC P. mirabilis (Proteus mirabilis; [12]): 12.5 µg/mL | MIC C. diversus (Citrobacter diversus; [12]): 50 µg/mL | MIC P. vulgaris (Proteus vulgaris; [12]): 12.5 µg/mL | MIC E. cloacae (Enterobacter cloacae; [12]): 50 µg/mL | MIC (E. coli DH5α): 50 µg/mL | MIC A. hydrophila (Aeromonas hydrophila; [12]): 12.5 µg/mL

PRT446 (DVDECVGLQPVCPQGTTCINTGGSFQCVSPECPEGSGNVSYVKTSPFQCE; listed as Homo sapiens)
MIC against E. coli BL21 (E. coli BL21; [1]): 12.5 µg/mL | MIC against P. aeruginosa (Pseudomonas aeruginosa; [1]): 12.5 µg/mL | MIC against M. catarrhalis (Moraxella catarrhalis; [1]): 50 µg/mL | MIC against S. marcescens (Serratia marcescens; [1]): 25 µg/mL | MIC against K. pneumonia (Klebsiella pneumonia; [1]): 50 µg/mL | MIC against P. mirabilis (Proteus mirabilis; [1]): 25 µg/mL | MIC against C. diversus (Citrobacter diversus; [1]): 12.5 µg/mL | MIC against P. vulgaris (Proteus vulgaris; [1]): 12.5 µg/mL | MIC against E. cloacae (Enterobacter cloacae; [1]): 12.5 µg/mL | MIC (E. coli DH5α): 12.5 µg/mL | MIC against A. hydrophila (Aeromonas hydrophila; [1]): 50 µg/mL

PRT1293 (KLDFCAQDLNPCQHDSKCILTPKGFKCDCTPGYVGEHCD; listed as Homo sapiens)
MIC against E. coli BL21 (E. coli BL21; E. coli BL21, 96-well plate, 5×10^5 CFU/mL, 37° C., 10 h): 12.5 µg/mL | MIC against P. aeruginosa (Pseudomonas aeruginosa; Pseudomonas aeruginosa, 96-well plate, 5×10^5 CFU/mL, 37° C., 10 h): 25 µg/mL | MIC against M. catarrhalis (Moraxella catarrhalis; Moraxella catarrhalis, 96-well plate, 5×10^5 CFU/mL, 37° C., 10 h): 12.5 µg/mL | MIC against S. marcescens (Serratia marcescens; Serratia marcescens, 96-well plate, 5×10^5 CFU/mL, 37° C., 10 h): 12.5 µg/mL | MIC against K. pneumonia (Klebsiella pneumonia; Klebsiella pneumonia, 96-well plate, 5×10^5 CFU/mL, 37° C., 10 h): 50 µg/mL | MIC against P. mirabilis (Proteus mirabilis; Proteus mirabilis, 96-well plate, 5×10^5 CFU/mL, 37° C., 10 h): 12.5 µg/mL | MIC against C. diversus (Citrobacter diversus; Citrobacter diversus, 96-well plate, 5×10^5 CFU/mL, 37° C., 10 h): 12.5 µg/mL | MIC against P. vulgaris (Proteus vulgaris; Proteus vulgaris, 96-well plate, 5×10^5 CFU/mL, 37° C., 10 h): 50 µg/mL | MIC against E. cloacae (Enterobacter cloacae; Enterobacter cloacae, 96-well plate, 5×10^5 CFU/mL, 37° C., 10 h): 12.5 µg/mL | MIC (E. coli DH5α): 25 µg/mL | MIC against A. hydrophila (Aeromonas hydrophila; Aeromonas hydrophila, 96-well plate, 5×10^5 CFU/mL, 37° C., 10 h): 50 µg/mL
